# Assays:
# [1] = molecular target: T1, human dopamine D2L receptors (long isoform) (Homo sapiens, UniProt P14416); test: Dopamine D2L receptor binding, displacement of [125I] iodospiperone; conditions: membranes of HEK-293 cells, 0.01 nM [125I] iodospiperone, 25° C., 60 minutes; read-out: Ki D2
# T1 construct: expressed in transfected cells; host or cells: HEK-293
# Procedure: (§1) The substance to be tested was either dissolved in methanol/Chremophor® (BASF-AG) or in dimethyl sulfoxide and then diluted with water to the desired concentration.
# (§2) Each assay mixture was run in triplicate.
# The incubation buffer contained 50 mM tris, 120 mM NaCl, 5 mM KCl, 2 mM CaCl2, 2 mM MgCl2 and 0.1% bovine serum albumin. The buffer was adjusted to pH 7.4 with HCl.
# (§3) After having been incubated at 25° C. for 60 minutes, the assay mixtures were filtered through a Wathman GF/B glass fiber filter under vacuum using a cell collecting device. The filters were transferred to scintillation viols using a filter transfer system. After 4 ml of Ultima Gold® (Packard) have been added, the samples were shaken for one hour and the radioactivity was then counted in a Beta-Counter (Packard, Tricarb 2000 or 2200CA). The cpm values were converted into dpm using a standard quench series and the program belonging to the instrument.
# (§4) The inhibition curves were analyzed by means of iterative nonlinear regression analysis using the Statistical Analysis System (SAS) which is similar to the “LIGAND” program described by Munson and Rodbard.
# [2] = molecular target: T2, human dopamine D3 receptors (Homo sapiens, UniProt P35462); test: Dopamine D3 receptor binding, displacement of [125I]-iodosulpride; conditions: for Ki: membranes of HEK-293 cells, 0.1 nM [125I]-iodosulpride, 25° C., 60 minutes; for Selectivity [Ki(D2)/Ki(D3)]: ratio of Ki D2 to Ki D3
# T2 construct: expressed in transfected cells; host or cells: HEK-293
# Procedure: as §1, §2
# The incubation buffer contained 50 mM tris, 120 mM NaCl, 5 mM KCl, 2 mM CaCl2, 2 mM MgCl2 and 0.1% bovine serum albumin, 10 μM quinolone and 0.1% ascorbic acid (prepared fresh daily). The buffer was adjusted to pH 7.4 with HCl.
# as §3, §4
# T2 sequence (P35462 whole entry): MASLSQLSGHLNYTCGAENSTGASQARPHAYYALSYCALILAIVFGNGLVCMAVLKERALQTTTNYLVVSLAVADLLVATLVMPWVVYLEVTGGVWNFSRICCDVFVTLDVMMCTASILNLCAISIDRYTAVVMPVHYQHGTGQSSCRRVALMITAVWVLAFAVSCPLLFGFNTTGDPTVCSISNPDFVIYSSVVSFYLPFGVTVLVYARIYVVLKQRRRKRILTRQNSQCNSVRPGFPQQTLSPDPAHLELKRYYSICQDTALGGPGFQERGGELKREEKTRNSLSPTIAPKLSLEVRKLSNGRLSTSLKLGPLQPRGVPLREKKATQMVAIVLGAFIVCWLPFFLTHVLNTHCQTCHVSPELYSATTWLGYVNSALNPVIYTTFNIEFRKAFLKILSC
# T1 sequence (P14416 whole entry, canonical isoform): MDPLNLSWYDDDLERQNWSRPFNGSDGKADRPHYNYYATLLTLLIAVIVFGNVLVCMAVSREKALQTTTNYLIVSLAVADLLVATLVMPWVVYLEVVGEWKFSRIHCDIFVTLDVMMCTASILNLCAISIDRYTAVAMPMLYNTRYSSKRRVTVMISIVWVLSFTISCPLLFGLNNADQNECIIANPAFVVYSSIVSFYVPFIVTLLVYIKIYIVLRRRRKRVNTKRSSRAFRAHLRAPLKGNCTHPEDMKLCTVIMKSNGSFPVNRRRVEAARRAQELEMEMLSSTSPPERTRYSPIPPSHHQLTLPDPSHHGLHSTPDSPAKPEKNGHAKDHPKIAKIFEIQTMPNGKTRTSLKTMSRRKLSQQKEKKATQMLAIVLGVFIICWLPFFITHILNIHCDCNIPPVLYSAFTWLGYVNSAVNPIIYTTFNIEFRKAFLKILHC
melting point [°C],Structure (SMILES),Ki [1] [nM],Ki [2] [nM],Selectivity [Ki(D2)/Ki(D3)] [2]
–,Cn1c(N)nnc1SCCCN1CCN(c2cc(C(F)(F)F)nc(C(C)(C)C)n2)CC1 [B],119,3.9,31
92 to 95,"Cl.Cn1cnnc1SCCCN1CCN(c2cc(C(F)(F)F)nc(C(C)(C)C)n2)CC1 [Example 6, 2-tert-Butyl-4-{4-[3-(4-methyl-4H-[1,2,4]triazol-3-ylsulfanyl)-propyl]-piperazin-1-yl}-6-trifluoromethyl-pyrimidine hydrochloride]",–,–,–
–,Cn1c(N)nnc1SCCCN1CCN(c2cc(C(C)(C)C)nc(C(C)(C)C)n2)CC1 [A],12,0.7,19

# Reference: patent publication US6919342B2, “Triazole compounds suitable for treating disorders that respond to modulation of the dopamine D3 receptor” (Abbott GmbH & Co. KG, priority 2003, dated 2005)
